Data: ChEMBL document CHEMBL4145454, “Discovery of 2,4-diarylaminopyrimidines bearing a resorcinol motif as novel ALK inhibitors to overcome the G1202R resistant mutation” (Eur J Med Chem, 2018)
Active and inactive are the calls of the source. No cut-off for these calls is given here.

Experiments:
[1] = target: T1, ALK tyrosine kinase receptor (Homo sapiens, UniProt Q9UM73)
NCI-H3122 [2] = experiment: cells; settings: Homo sapiens, NCI-H3122, 72 h
Description: Antiproliferative activity against human NCI-H3122 cells after 72 hrs by SRB or CCK8 assay

[3] = target: ALK tyrosine kinase receptor (Homo sapiens, UniProt Q9UM73, G1202R)
BaF3 [4] = experiment: cells; settings: Mus musculus, BaF3, 72 h
Description: Antiproliferative activity against IL3-stimulated mouse BAF3 cells after 72 hrs by SRB or CCK8 assay

KARPAS-299 = experiment: cells; settings: Homo sapiens, KARPAS-299, 72 h
Description: Antiproliferative activity against human KARPAS299 cells harboring NPM-ALK after 72 hrs by SRB or CCK8 assay

HCC78 = experiment: cells; settings: Homo sapiens, HCC78, 72 h
Description: Antiproliferative activity against human HCC78 cells harboring SLC34A2-ROS1 after 72 hrs by SRB or CCK8 assay

[5] = target: T1, ALK tyrosine kinase receptor; settings: NCI-H3122, 20 to 200 nM
Description: Inhibition of ALK in human NCI-H3122 cells assessed as reduction in STAT3 phosphorylation at Y705 residue at 20 to 200 nM after 1 hr by Western blot analysis

[6] = target: T1, ALK tyrosine kinase receptor; settings: 20 to 200 nM
Description: Inhibition of ALK in human SU-DHL1 cells assessed as reduction in STAT3 phosphorylation at Y705 residue at 20 to 200 nM after 1 hr by Western blot analysis

[7] = target: T1, ALK tyrosine kinase receptor; settings: 20 to 200 nM; remark: listed apart in the source
Description: Inhibition of ALK phosphorylation at Y1278 residue in human SU-DHL1 cells at 20 to 200 nM after 1 hr by Western blot analysis

[8] = target: T1, ALK tyrosine kinase receptor; settings: 20 to 200 nM; remark: listed apart in the source
Description: Inhibition of ALK in human SU-DHL1 cells assessed as reduction in ERK phosphorylation at T202//Y204 residues at 20 to 200 nM after 1 hr by Western blot analysis

BaF3 [9] = experiment: cells; settings: Mus musculus, BaF3, 72 h; remark: listed apart in the source
Description: Antiproliferative activity against mouse BAF3 cells harboring EML4-ALK after 72 hrs by SRB or CCK8 assay

[10] = target: T1, ALK tyrosine kinase receptor; settings: NCI-H3122, 20 to 200 nM; remark: listed apart in the source
Description: Inhibition of ALK in human NCI-H3122 cells assessed as reduction in ERK phosphorylation at T202//Y204 residues at 20 to 200 nM after 1 hr by Western blot analysis

BaF3 [11] = experiment: cells; settings: Mus musculus, BaF3, 72 h; remark: listed apart in the source
Description: Antiproliferative activity against mouse BAF3 cells harboring CD74-ROS1 after 72 hrs by SRB or CCK8 assay

[12] = target: T1, ALK tyrosine kinase receptor; settings: 20 to 200 nM; remark: listed apart in the source
Description: Inhibition of ALK in human SU-DHL1 cells assessed as reduction in Akt phosphorylation at S473 residue at 20 to 200 nM after 1 hr by Western blot analysis

[13] = target: T1, ALK tyrosine kinase receptor; settings: NCI-H3122, 20 to 200 nM; remark: listed apart in the source
Description: Inhibition of ALK in human NCI-H3122 cells assessed as reduction in Akt phosphorylation at S473 residue at 20 to 200 nM after 1 hr by Western blot analysis

SU-DHL-1 [14] = experiment: cells; settings: Homo sapiens, SU-DHL-1, 72 h
Description: Antiproliferative activity against human SU-DHL1 cells harboring NPM-ALK after 72 hrs by SRB or CCK8 assay

[15] = target: T1, ALK tyrosine kinase receptor; settings: NCI-H3122, 20 to 200 nM; remark: listed apart in the source
Description: Inhibition of ALK phosphorylation at Y1278 residue in human NCI-H3122 cells at 20 to 200 nM after 1 hr by Western blot analysis

BaF3 [16] = experiment: cells; settings: Mus musculus, BaF3, 72 h; remark: listed apart in the source
BaF3 [17] = experiment: cells; settings: Mus musculus, BaF3, 72 h; remark: listed apart in the source
BaF3 [18] = experiment: cells; settings: Mus musculus, BaF3, 72 h; remark: listed apart in the source
Description: Antiproliferative activity against mouse BAF3 cells harboring CD74-ROS1 G2032R mutant after 72 hrs by SRB or CCK8 assay

[19] = target: ALK tyrosine kinase receptor (Homo sapiens, UniProt Q9UM73, S1206Y)
[20] = target: ALK tyrosine kinase receptor (Homo sapiens, UniProt Q9UM73, T1151M)
NCI-H3122 [21] = experiment: Induction of apoptosis in human NCI-H3122 cells at 20 to 80 nM after 48 hrs by Annexin V-FITC/propidium iodide staining based flow cytometry; assay type: functional, cell-based
[22] = target: ALK tyrosine kinase receptor (Homo sapiens, UniProt Q9UM73, L1152R)
SU-DHL-1 [23] = experiment: Induction of apoptosis in human SU-DHL1 cells at 20 to 80 nM after 48 hrs by Annexin V-FITC/propidium iodide staining based flow cytometry; assay type: functional, cell-based
[24] = target: ALK tyrosine kinase receptor (Homo sapiens, UniProt Q9UM73, R1275Q)

| Structure (SMILES) | IC50 [1] [nM] | IC50 (NCI-H3122 [2]) [nM] | IC50 [3] [nM] | also measured |
| --- | --- | --- | --- | --- |
| CC(C)c1cc(C(=O)NCC(=O)Nc2cccc(Nc3ncc(Cl)c(Nc4cc(S(=O)(=O)C(C)C)nn4C)n3)c2)c(O)cc1O | 262 | > 1000 |  |  |
| COc1ccc(NC(=O)CNC(=O)c2cc(C(C)C)ccc2O)cc1Nc1ncc(Cl)c(Nc2ccccc2S(=O)(=O)C(C)C)n1 | 0.7 | 4 | 15.3 |  |
| COc1ccc(NC(=O)C(NC(=O)c2cc(C(C)C)c(O)cc2O)C(C)C)cc1Nc1ncc(Cl)c(Nc2ccccc2S(=O)(=O)C(C)C)n1 (stereo not given) | > 1000 | > 1000 |  |  |
| Cc1cc(Nc2ncc(Cl)c(Nc3ccccc3S(=O)(=O)C(C)C)n2)c(OC(C)C)cc1C1CCNCC1 [CERITINIB] |  | 96 |  | IC50 (BaF3 [4]): > 1000 nM; IC50 (KARPAS-299): 84 nM; IC50 (HCC78): > 1000 nM; inhibition [5]: Active; inhibition [6]: Active; inhibition [7]: Active; inhibition [8]: Active; IC50 (BaF3 [9]): 10.7 nM; inhibition [10]: Active; IC50 (BaF3 [11]): 234 nM; inhibition [12]: Active; inhibition [13]: Active; IC50 (SU-DHL-1 [14]): 122 nM; inhibition [15]: Active; IC50 (BaF3 [16]): 54.9 nM; IC50 (BaF3 [17]): 726 nM; IC50 (BaF3 [18]): > 1000 nM |
| COc1cc(OC)c(C(C)C)cc1C(=O)NCC(=O)Nc1cccc(Nc2ncc(Cl)c(Nc3ccccc3S(=O)(=O)C(C)C)n2)c1 | > 1000 | > 1000 |  |  |
| COc1ccc(NC(=O)C(Cc2ccccc2)NC(=O)c2cc(C(C)C)c(O)cc2O)cc1Nc1ncc(Cl)c(Nc2ccccc2S(=O)(=O)C(C)C)n1 (stereo not given) | 7.8 | 57 | 65 |  |
| COc1ccc(Nc2ncc(Cl)c(Nc3ccccc3S(=O)(=O)C(C)C)n2)cc1NC(=O)CNC(=O)c1cc(C(C)C)c(O)cc1O | 2.6 | > 1000 |  |  |
| COc1ccc(NC(=O)C(C)NC(=O)c2cc(C(C)C)c(O)cc2O)cc1Nc1ncc(Cl)c(Nc2ccccc2S(=O)(=O)C(C)C)n1 (stereo not given) | 0.7 | 6.8 |  |  |
| C[C@H]1Oc2cc(cnc2N)-c2c(nn(C)c2C#N)CN(C)C(=O)c2ccc(F)cc21 [LORLATINIB] |  | 7.8 |  | IC50 (BaF3 [4]): > 1000 nM; IC50 (KARPAS-299): 3 nM; IC50 (HCC78): 357 nM; IC50 (BaF3 [9]): 2.9 nM; IC50 (BaF3 [11]): 1.2 nM; IC50 (SU-DHL-1 [14]): 4.9 nM; IC50 (BaF3 [16]): 42.4 nM; IC50 (BaF3 [17]): 200 nM; IC50 (BaF3 [18]): 262 nM |
| CC(C)c1cc(C(=O)NCC(=O)Nc2cccc(Nc3ncc(Cl)c(Nc4ccccc4S(=O)(=O)C(C)C)n3)c2)c(O)cc1O | 0.8 | 84 |  |  |
| CC(C)c1cc(C(=O)NCC(=O)Nc2ccc(F)c(Nc3ncc(Cl)c(Nc4ccccc4S(=O)(=O)C(C)C)n3)c2)c(O)cc1O | 1 | 7.2 | 15.5 |  |
| CC(C)Oc1ccc(NC(=O)CNC(=O)c2cc(C(C)C)c(O)cc2O)cc1Nc1ncc(Cl)c(Nc2ccccc2S(=O)(=O)C(C)C)n1 | 3.3 | 69 |  |  |
| COc1ccc(NC(=O)C2(NC(=O)c3cc(C(C)C)c(O)cc3O)CC2)cc1Nc1ncc(Cl)c(Nc2ccccc2S(=O)(=O)C(C)C)n1 | 130 | 254 |  |  |

More lines, in order of falling IC50 (NCI-H3122 [2]), values ahead:

| IC50 [1] [nM] | IC50 (NCI-H3122 [2]) [nM] | IC50 [3] [nM] | Structure (SMILES) | also measured |
| --- | --- | --- | --- | --- |
| 4.2 | 123 |  | CC(C)Oc1ccc(NC(=O)CNC(=O)c2cc(C(C)C)c(O)cc2O)cc1Nc1nccc(Nc2ccccc2S(=O)(=O)C(C)C)n1 |  |
| 1.5 | 99 | 7.8 | COc1ccc(NC(=O)CNC(=O)c2cc(C(C)C)c(O)cc2O)cc1Nc1ncc(Cl)c(Nc2ccccc2P(C)(C)=O)n1 |  |
| 1.3 | 64 |  | COc1ccc(NC(=O)CNC(=O)c2cc(C(C)C)c(O)cc2O)cc1Nc1ncnc(Nc2ccccc2S(=O)(=O)C(C)C)n1 |  |
| 10.5 | 13.7 |  | COc1ccc(NC(=O)CNC(=O)c2cc(C(C)C)c(OC)cc2O)cc1Nc1ncc(Cl)c(Nc2ccccc2S(=O)(=O)C(C)C)n1 |  |
| 48 | 12.8 |  | COc1ccc(NC(=O)CNC(=O)c2cc(C(C)C)c(O)cc2OC)cc1Nc1ncc(Cl)c(Nc2ccccc2S(=O)(=O)C(C)C)n1 |  |
| 1.4 | 9.1 | 6.1 | COc1ccc(NC(=O)CNC(=O)c2ccc(O)c(C(C)C)c2)cc1Nc1ncc(Cl)c(Nc2ccccc2S(=O)(=O)C(C)C)n1 |  |
| 1.7 | 6.9 | 1.8 | COc1ccc(NC(=O)CNC(=O)c2cc(C(C)C)c(O)cc2O)cc1Nc1ncc(Cl)c(Nc2ccccc2S(=O)(=O)C(C)C)n1 | IC50 (BaF3 [4]): > 1000 nM; IC50 (KARPAS-299): 10.4 nM; IC50 (HCC78): < 1.5 nM; IC50 [19]: 5.1 nM; IC50 [20]: 2.2 nM; IC50 (BaF3 [9]): < 1.5 nM; IC50 (BaF3 [11]): 0.2 nM; Activity (NCI-H3122 [21]): Active; IC50 (SU-DHL-1 [14]): 4.8 nM; IC50 (BaF3 [16]): < 1.5 nM; IC50 [22]: 10.6 nM; Activity (SU-DHL-1 [23]): Active; IC50 (BaF3 [17]): < 1.5 nM; IC50 (BaF3 [18]): 0.2 nM; IC50 [24]: 2.7 nM |
